# In ChEMBL document CHEMBL1201861, “Genomics of Drug Sensitity in Cancer screening data, Wellcome Trust Sanger Institute”:
# Test system: A253 cell line;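 note: growth inhibition of A253 cells, read out with a cell viability assay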
# Assay: cells
# Assay type: functional, cell-based, Homo sapiens
# Settings: Homo sapiens, A253
# Description: SANGER: Inhibition of human A253 cell growth in a cell viability assay.
row,Compound,IC50
1,CCN(CC)CCNC(=O)c1c(C)[nH]c(/C=C2\C(=O)Nc3ccc(F)cc32)c1C [SUNITINIB],> 8 µM

# Test system: GB-1;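 note: growth of GB-1 cells judged by a viability assay, IC50 marks the concentration inhibiting growth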
# Assay: cells
# Assay type: functional, cell-based, Homo sapiens
# Settings: Homo sapiens, GB-1
# Description: SANGER: Inhibition of human GB-1 cell growth in a cell viability assay.
row,Compound,IC50
1,CCN(CC)CCNC(=O)c1c(C)[nH]c(/C=C2\C(=O)Nc3ccc(F)cc32)c1C [SUNITINIB],0.71 µM

# Test system: RPMI-8866
# Assay: cells
# Assay type: functional, cell-based, Homo sapiens
# Settings: Homo sapiens, RPMI-8866
# Description: SANGER: Inhibition of human RPMI-8866 cell growth in a cell viability assay.
row,Compound,IC50
1,CCN(CC)CCNC(=O)c1c(C)[nH]c(/C=C2\C(=O)Nc3ccc(F)cc32)c1C [SUNITINIB],> 8 µM

# Test system: SCC-15;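 note: growth inhibition of SCC-15 cells, read out with a cell viability assay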
# Assay: cells
# Assay type: functional, cell-based, Homo sapiens
# Settings: Homo sapiens, SCC-15
# Description: SANGER: Inhibition of human SCC-15 cell growth in a cell viability assay.
row,Compound,IC50
1,CCN(CC)CCNC(=O)c1c(C)[nH]c(/C=C2\C(=O)Nc3ccc(F)cc32)c1C [SUNITINIB],> 8 µM

# Test system: MHH-NB-11;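 note: growth inhibition of human MHH-NB-11 cells, read out by a cell viability assay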
# Assay: cells
# Assay type: functional, cell-based, Homo sapiens
# Settings: Homo sapiens, MHH-NB-11
# Description: SANGER: Inhibition of human MHH-NB-11 cell growth in a cell viability assay.
row,Compound,IC50
1,CCN(CC)CCNC(=O)c1c(C)[nH]c(/C=C2\C(=O)Nc3ccc(F)cc32)c1C [SUNITINIB],> 8 µM

# Test system: NKM-1;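 note: growth inhibition of NKM-1 cells, read out with a cell viability assay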
# Assay: cells
# Assay type: functional, cell-based, Homo sapiens
# Settings: Homo sapiens, NKM-1
# Description: SANGER: Inhibition of human NKM-1 cell growth in a cell viability assay.
row,Compound,IC50
1,CCN(CC)CCNC(=O)c1c(C)[nH]c(/C=C2\C(=O)Nc3ccc(F)cc32)c1C [SUNITINIB],0.0985 µM

# Test system: VA-ES-BJ;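 note: growth inhibition of the VA-ES-BJ cell line, read out by a cell viability assay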
# Assay: cells
# Assay type: functional, cell-based, Homo sapiens
# Settings: Homo sapiens, VA-ES-BJ
# Description: SANGER: Inhibition of human VA-ES-BJ cell growth in a cell viability assay.
row,Compound,IC50
1,CCN(CC)CCNC(=O)c1c(C)[nH]c(/C=C2\C(=O)Nc3ccc(F)cc32)c1C [SUNITINIB],> 8 µM

# Test system: ONS-76;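 note: growth inhibition of human ONS-76 cells, read out with a cell viability assay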
# Assay: cells
# Assay type: functional, cell-based, Homo sapiens
# Settings: Homo sapiens, ONS-76
# Description: SANGER: Inhibition of human ONS-76 cell growth in a cell viability assay.
row,Compound,IC50
1,CCN(CC)CCNC(=O)c1c(C)[nH]c(/C=C2\C(=O)Nc3ccc(F)cc32)c1C [SUNITINIB],> 8 µM

# Test system: TGBC24TKB;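 note: growth inhibition of human TGBC24TKB cells, read out with a cell viability assay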
# Assay: cells
# Assay type: functional, cell-based, Homo sapiens
# Settings: Homo sapiens, TGBC24TKB
# Description: SANGER: Inhibition of human TGBC24TKB cell growth in a cell viability assay.
row,Compound,IC50
1,CCN(CC)CCNC(=O)c1c(C)[nH]c(/C=C2\C(=O)Nc3ccc(F)cc32)c1C [SUNITINIB],> 8 µM

# Test system: COLO-800;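 note: growth inhibition of COLO-800 cells, read out with a cell viability assay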
# Assay: cells
# Assay type: functional, cell-based, Homo sapiens
# Settings: Homo sapiens, COLO-800
# Description: SANGER: Inhibition of human COLO-800 cell growth in a cell viability assay.
row,Compound,IC50
1,CCN(CC)CCNC(=O)c1c(C)[nH]c(/C=C2\C(=O)Nc3ccc(F)cc32)c1C [SUNITINIB],> 8 µM

# Test system: no-11;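 note: growth inhibition of human NO-11 cells, read out with a cell viability assay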
# Assay: cells
# Assay type: functional, cell-based, Homo sapiens
# Settings: Homo sapiens
# Description: SANGER: Inhibition of human no-11 cell growth in a cell viability assay.
row,Compound,IC50
1,CCN(CC)CCNC(=O)c1c(C)[nH]c(/C=C2\C(=O)Nc3ccc(F)cc32)c1C [SUNITINIB],7.78 µM

# Test system: BB49-HNC;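 note: cell viability assay read-out, reported as inhibition of BB49-HNC cell growth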
# Assay: cells
# Assay type: functional, cell-based, Homo sapiens
# Settings: Homo sapiens, BB49-HNC
# Description: SANGER: Inhibition of human BB49-HNC cell growth in a cell viability assay.
row,Compound,IC50
1,CCN(CC)CCNC(=O)c1c(C)[nH]c(/C=C2\C(=O)Nc3ccc(F)cc32)c1C [SUNITINIB],3.71 µM

# Test system: SNU1;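 note: growth inhibition of human NCI-SNU-1 cells, measured with a cell viability assay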
# Assay: cells
# Assay type: functional, cell-based, Homo sapiens
# Settings: Homo sapiens, SNU1
# Description: SANGER: Inhibition of human NCI-SNU-1 cell growth in a cell viability assay.
row,Compound,IC50
1,CCN(CC)CCNC(=O)c1c(C)[nH]c(/C=C2\C(=O)Nc3ccc(F)cc32)c1C [SUNITINIB],> 8 µM

# Test system: EC-GI-10
# Assay: cells
# Assay type: functional, cell-based, Homo sapiens
# Settings: Homo sapiens, EC-GI-10
# Description: SANGER: Inhibition of human EC-GI-10 cell growth in a cell viability assay.
row,Compound,IC50
1,CCN(CC)CCNC(=O)c1c(C)[nH]c(/C=C2\C(=O)Nc3ccc(F)cc32)c1C [SUNITINIB],> 8 µM

# Test system: LB1047-RCC;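 note: inhibition of cell growth, determined with a cell viability assay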
# Assay: cells
# Assay type: functional, cell-based, Homo sapiens
# Settings: Homo sapiens, LB1047-RCC
# Description: SANGER: Inhibition of human LB1047-RCC cell growth in a cell viability assay.
row,Compound,IC50
1,CCN(CC)CCNC(=O)c1c(C)[nH]c(/C=C2\C(=O)Nc3ccc(F)cc32)c1C [SUNITINIB],1.82 µM

# Test system: KLE;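 note: growth inhibition of human KLE cells, read out with a cell viability assay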
# Assay: cells
# Assay type: functional, cell-based, Homo sapiens
# Settings: Homo sapiens, KLE
# Description: SANGER: Inhibition of human KLE cell growth in a cell viability assay.
row,Compound,IC50
1,CCN(CC)CCNC(=O)c1c(C)[nH]c(/C=C2\C(=O)Nc3ccc(F)cc32)c1C [SUNITINIB],> 8 µM

# Test system: CTV-1;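 note: growth inhibition of the cell line, read out with a cell viability assay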
# Assay: cells
# Assay type: functional, cell-based, Homo sapiens
# Settings: Homo sapiens, CTV-1
# Description: SANGER: Inhibition of human CTV-1 cell growth in a cell viability assay.
row,Compound,IC50
1,CCN(CC)CCNC(=O)c1c(C)[nH]c(/C=C2\C(=O)Nc3ccc(F)cc32)c1C [SUNITINIB],1.73 µM

# Test system: TE-12;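 note: growth inhibition of TE-12 cells, read out by a cell viability assay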
# Assay: cells
# Assay type: functional, cell-based, Homo sapiens
# Settings: Homo sapiens, TE-12
# Description: SANGER: Inhibition of human TE-12 cell growth in a cell viability assay.
row,Compound,IC50
1,CCN(CC)CCNC(=O)c1c(C)[nH]c(/C=C2\C(=O)Nc3ccc(F)cc32)c1C [SUNITINIB],0.805 µM

# Test system: CP66-MEL;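 note: growth inhibition of CP66-MEL cells determined in a cell viability assay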
# Assay: cells
# Assay type: functional, cell-based, Homo sapiens
# Settings: Homo sapiens, CP66-MEL
# Description: SANGER: Inhibition of human CP66-MEL cell growth in a cell viability assay.
row,Compound,IC50
1,CCN(CC)CCNC(=O)c1c(C)[nH]c(/C=C2\C(=O)Nc3ccc(F)cc32)c1C [SUNITINIB],> 8 µM

# Test system: EOL1;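 note: growth inhibition of EoL-1 cells, read out by a cell viability assay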
# Assay: cells
# Assay type: functional, cell-based, Homo sapiens
# Settings: Homo sapiens, EOL1
# Description: SANGER: Inhibition of human EoL-1-cell cell growth in a cell viability assay.
row,Compound,IC50
1,CCN(CC)CCNC(=O)c1c(C)[nH]c(/C=C2\C(=O)Nc3ccc(F)cc32)c1C [SUNITINIB],< 0.0312 µM

# Test system: SF-126;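 note: growth inhibition of human SF126 cells, read out with a cell viability assay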
# Assay: cells
# Assay type: functional, cell-based, Homo sapiens
# Settings: Homo sapiens, SF-126
# Description: SANGER: Inhibition of human SF126 cell growth in a cell viability assay.
row,Compound,IC50
1,CCN(CC)CCNC(=O)c1c(C)[nH]c(/C=C2\C(=O)Nc3ccc(F)cc32)c1C [SUNITINIB],3.06 µM

# Test system: NCI-H510A;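 note: growth inhibition of NCI-H510A cells, read out with a cell viability assay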
# Assay: cells
# Assay type: functional, cell-based, Homo sapiens
# Settings: Homo sapiens, NCI-H510A
# Description: SANGER: Inhibition of human NCI-H510A cell growth in a cell viability assay.
row,Compound,IC50
1,CCN(CC)CCNC(=O)c1c(C)[nH]c(/C=C2\C(=O)Nc3ccc(F)cc32)c1C [SUNITINIB],> 8 µM

# Test system: EW-18;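 note: growth inhibition of EW-18 cells, read out by a cell viability assay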
# Assay: cells
# Assay type: functional, cell-based, Homo sapiens
# Settings: Homo sapiens, EW-18
# Description: SANGER: Inhibition of human EW-18 cell growth in a cell viability assay.
row,Compound,IC50
1,CCN(CC)CCNC(=O)c1c(C)[nH]c(/C=C2\C(=O)Nc3ccc(F)cc32)c1C [SUNITINIB],> 8 µM

# Test system: DSH1;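 note: growth inhibition of human DSH1 cells, measured with a cell viability readout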
# Assay: cells
# Assay type: functional, cell-based, Homo sapiens
# Settings: Homo sapiens, DSH1
# Description: SANGER: Inhibition of human DSH1 cell growth in a cell viability assay.
row,Compound,IC50
1,CCN(CC)CCNC(=O)c1c(C)[nH]c(/C=C2\C(=O)Nc3ccc(F)cc32)c1C [SUNITINIB],> 8 µM

# Test system: NB69;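 note: growth inhibition of NB69 cells, determined by a cell viability assay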
# Assay: cells
# Assay type: functional, cell-based, Homo sapiens
# Settings: Homo sapiens, NB69
# Description: SANGER: Inhibition of human NB69 cell growth in a cell viability assay.
row,Compound,IC50
1,CCN(CC)CCNC(=O)c1c(C)[nH]c(/C=C2\C(=O)Nc3ccc(F)cc32)c1C [SUNITINIB],> 8 µM
